# Assay results taken from ChEMBL document CHEMBL4364302, “4-Aminoquinoline-based compounds as antileishmanial agents that inhibit the energy metabolism of Leishmania” (Eur J Med Chem, 2019).
# Legend:
# [1] = system: THP-1; test: Cytotoxicity against human THP1 cells assessed as cell viability measured after 72 hrs by MTT assay; type: cell-based; settings: THP-1, 72 h
# [2] = system: BMDM; test: Cytotoxicity against mouse BMDM cells assessed as cell viability measured after 72 hrs by MTT assay; type: cell-based
# [3] = system: HMEC-1; test: Cytotoxicity against human HMEC1 cells assessed as cell viability measured after 72 hrs by MTT assay; type: cell-based; settings: HMEC-1, 72 h
# [4] = system: CFPAC-1; test: Cytotoxicity against human CFPAC-1 cells assessed as cell viability measured after 72 hrs by MTT assay; type: cell-based; settings: CFPAC-1, 72 h
# [5] = system: Leishmania infantum; test: Antileishmanial activity against promastigote stage of Leishmania infantum MHOM/TN/80/IPT1 assessed as reduction in parasite viability measured after 72 hrs by MTT assay; type: functional, organism-based; settings: MHOM/TN/80/IPT1, 72 h
# [6] = system: Leishmania infantum; test: Antileishmanial activity against intracellular amastigote stage of Leishmania infantum MHOM/TN/80/IPT1 assessed as reduction in parasite viability measured after 72 hrs by MTT assay; type: functional, organism-based; settings: MHOM/TN/80/IPT1, 72 h
# [7] = Selectivity index, ratio of IC50 for human THP1 cells to IC50 for intracellular amastigote stage of Leishmania infantum; type: toxicity, cell-based; settings: read-out: Ratio IC50
# [8] = Selectivity index, ratio of IC50 for mouse BMDM cells to IC50 for intracellular amastigote stage of Leishmania infantum; type: toxicity, cell-based; settings: read-out: Ratio IC50
# [9] = Selectivity index, ratio of IC50 for human HMEC1 cells to IC50 for intracellular amastigote stage of Leishmania infantum; type: toxicity, cell-based; settings: read-out: Ratio IC50
# [10] = Selectivity index, ratio of IC50 for human CFPAC-1 cells to IC50 for intracellular amastigote stage of Leishmania infantum; type: toxicity, cell-based; settings: read-out: Ratio IC50
# [11] = system: Leishmania braziliensis; test: Antileishmanial activity against promastigote stage of Leishmania braziliensis MHOM/IT/2006/ISS2848 assessed as reduction in parasite viability measured after 72 hrs by MTT assay; type: functional, organism-based; settings: MHOM/IT/2006/ISS2848, 72 h
# [12] = system: Leishmania braziliensis; test: Antileishmanial activity against intracellular amastigote stage of Leishmania braziliensis MHOM/IT/2006/ISS2848 assessed as reduction in parasite viability measured after 72 hrs by MTT assay; type: functional, organism-based; settings: MHOM/IT/2006/ISS2848, 72 h
# [13] = system: Leishmania tropica; test: Antileishmanial activity against promastigote stage of Leishmania tropica MHOM/IT/2012/ISS3130 assessed as reduction in parasite viability measured after 72 hrs by MTT assay; type: functional, organism-based; settings: MHOM/IT/2012/ISS3130, 72 h
# [14] = system: Leishmania tropica; test: Antileishmanial activity against intracellular amastigote stage of Leishmania tropica MHOM/IT/2012/ISS3130 assessed as reduction in parasite viability measured after 72 hrs by MTT assay; type: functional, organism-based; settings: MHOM/IT/2012/ISS3130, 72 h
# [15] = system: Leishmania infantum; test: Antileishmanial activity against promastigote stage of Leishmania infantum LEM3049 isolate measured after 72 hrs by MTT assay; type: functional, organism-based
# [16] = system: Leishmania infantum; test: Antileishmanial activity against antimony resistant promastigote stage of Leishmania infantum LEM3323 isolate measured after 72 hrs by MTT assay; type: functional, organism-based
# [17] = system: Leishmania infantum; test: Antileishmanial activity against miltefosine resistant promastigote stage of Leishmania infantum LEM5159 isolate measured after 72 hrs by MTT assay; type: functional, organism-based
# [18] = system: Leishmania infantum; test: Antileishmanial activity against miltefosine and paromomycin resistant promastigote stage of Leishmania infantum LEM2126 isolate measured after 72 hrs by MTT assay; type: functional, organism-based
# [19] = system: Leishmania infantum; test: Antileishmanial activity against intracellular amastigote stage of Leishmania infantum LEM3049 isolate measured after 72 hrs by MTT assay; type: functional, organism-based
# [20] = system: Leishmania infantum; test: Antileishmanial activity against antimony resistant intracellular amastigote stage of Leishmania infantum LEM3323 isolate measured after 72 hrs by MTT assay; type: functional, organism-based
# [21] = system: Leishmania infantum; test: Antileishmanial activity against miltefosine resistant intracellular amastigote stage of Leishmania infantum LEM5159 isolate measured after 72 hrs by MTT assay; type: functional, organism-based
# [22] = system: Leishmania infantum; test: Antileishmanial activity against miltefosine and paromomycin resistant intracellular amastigote stage of Leishmania infantum LEM2126 isolate measured after 72 hrs by MTT assay; type: functional, organism-based
# [23] = Selectivity index, ratio of IC50 for human THP1 cells to IC50 for intracellular amastigote stage of Leishmania infantum LEM3049 isolate; type: toxicity, cell-based; settings: read-out: Ratio IC50
# [24] = Selectivity index, ratio of IC50 for human THP1 cells to IC50 for antimony resistant intracellular amastigote stage of Leishmania infantum LEM3323 isolate; type: toxicity, cell-based; settings: read-out: Ratio IC50
# [25] = Selectivity index, ratio of IC50 for human THP1 cells to IC50 for miltefosine resistant intracellular amastigote stage of Leishmania infantum LEM5159 isolate; type: toxicity, cell-based; settings: read-out: Ratio IC50
# [26] = Selectivity index, ratio of IC50 for human THP1 cells to IC50 for miltefosine and paromomycin resistant intracellular amastigote stage of Leishmania infantum LEM2126 isolate; type: toxicity, cell-based; settings: read-out: Ratio IC50
smiles,measurement,setting,value
C[C@@H]1[C@H](O)[C@@H](C)/C=C/C=C/C=C/C=C/C=C/C=C/C=C/[C@H](O[C@@H]2O[C@H](C)[C@@H](O)[C@H](N)[C@@H]2O)C[C@@H]2O[C@](O)(C[C@@H](O)C[C@@H](O)[C@H](O)CC[C@@H](O)C[C@@H](O)CC(=O)O[C@H]1C)C[C@H](O)[C@H]2C(=O)O [AMPHOTERICIN B],IC50,[1],> 10000 nM
same,IC50,[2],> 10000 nM
same,IC50,[3],> 10000 nM
same,IC50,[4],> 10000 nM
same,IC50,[5],90 to 150 nM
same,IC50,[6],180 nM
same,selectivity ratio,[7],> 50
same,selectivity ratio,[8],> 50
same,selectivity ratio,[9],> 50
same,selectivity ratio,[10],> 50
same,IC50,[11],183 nM
same,IC50,[12],200 nM
same,IC50,[13]; read-out: IC50,120 nM
same,IC50,[14],160 nM
same,IC50,[15],60 nM
same,IC50,[16],70 nM
same,IC50,[17],50 nM
same,IC50,[18],100 nM
same,IC50,[19],170 nM
same,IC50,[20],180 nM
same,IC50,[21],160 nM
same,IC50,[22],160 nM
same,selectivity ratio,[23],164
same,selectivity ratio,[24],155
same,selectivity ratio,[25],174
same,selectivity ratio,[26],174
CCCCCCCCCCCCCCCCOP(=O)([O-])OCC[N+](C)(C)C [MILTEFOSINE],IC50,[5],1430 nM
same,IC50,[11],7590 nM
same,IC50,[12],890 nM
same,IC50,[13],10400 nM
same,IC50,[14],1150 nM
NC[C@@H]1O[C@H](O[C@H]2[C@@H](O)[C@H](O[C@@H]3[C@@H](O)[C@H](N)C[C@H](N)[C@H]3O[C@H]3O[C@H](CO)[C@@H](O)[C@H](O)[C@H]3N)O[C@@H]2CO)[C@H](N)[C@@H](O)[C@@H]1O [PAROMOMYCIN],IC50,[5],427000 nM
